Our source for the EC50 and IC50 values is patent US10106571B2, “HCV polymerase inhibitors” (priority 2013, dated 2018).

Some results are limits rather than exact numbers.

For the first assay, the system named is HCV type 1b replicon (Huh-7 luc/neo, Huh-Luc). As to the kind of experiment: Replicon assay, Huh-Luc cells with HCV type 1b replicon (stable), luciferase readout. In kind it is cell-based. The settings on record: Hepatitis C virus, Huh-7, 72 h, Huh-Luc HCV 1b replicon, three days incubation, luciferase activity; read-out: EC50. An excerpt: The compounds of formula I may be examined for activity in the inhibition of HCV RNA replication in a cellular assay aimed at identifying compounds that inhibit a HCV functional cellular replicating cell line, also known as HCV replicons. A suitable cellular assay is based on a bicistronic expression construct, as described by Lohmann et al. (1999), Science vol. 285 pp. 110-113 with modifications described by Krieger et al. (2001), Journal of Virology 75: 4614-4624, in a multi-target screening strategy.
The assay utilizes the stably transfected cell line Huh-7 luc/neo (hereafter referred to as Huh-Luc). This cell line harbors an RNA encoding a bicistronic expression construct comprising the wild type NS3-NS5B regions of HCV type 1b translated from an Internal Ribosome Entry Site (IRES) from encephalomyocarditis virus (EMCV), preceded by a reporter portion (FfL-luciferase), and a selectable marker portion (neo^R, neomycine phosphotransferase). The construct is bordered by 5′ and 3′ NTRs (non-translated regions) from HCV type 1b. Continued culture of the replicon cells in the presence of G418 (neo^R) is dependent on the replication of the HCV RNA. The stably transfected replicon cells that express HCV RNA, which replicates autonomously and to high levels, encoding inter alia luciferase, are used for screening the antiviral compounds.
The replicon cells are plated in 384 well plates in the presence of the test and control compounds which are added in various concentrations. Following an incubation of three days, HCV replication is measured by assaying luciferase activity (using standard luciferase assay substrates and reagents and a Perkin Elmer ViewLux™ ultraHTS microplate imager). Replicon cells in the control cultures have high luciferase expression in the absence of any inhibitor. The inhibitory activity of a compound on luciferase activity is monitored on the Huh-Luc cells, enabling a dose-response curve for each test compound. EC50 values are then calculated, which value represents the amount of the compound required to decrease the level of detected luciferase activity by 50%, or more specifically, the ability of the genetically linked HCV replicon RNA to replicate.
(In general: A replicon is a self-replicating genome or part of one, used to study replication in cells.)
As a reminder, the EC50 is the midpoint of the concentration-response curve. Take `CC(C)OC(=O)[C@H](C)NP(=O)(OC[C@H]1O[C@@H](n2ccc(=O)[nH]c2=O)[C@@](F)(Cl)[C@@H]1O)Oc1ccc(C2(C)CC2)cc1` (stereo partly drawn) [Example 17]: the EC50 was determined as 0.11 µM. As to `CCCOC(=O)[C@H](C)NP(=O)(OC[C@H]1O[C@@H](n2ccc(=O)[nH]c2=O)[C@@](F)(Cl)[C@@H]1O)Oc1ccccc1` (stereo partly drawn) [Example 14], the concentration giving a half-maximal response (EC50) turned out to be 0.076 µM.

Regarding `O=c1ccn([C@@H]2O[C@H](CO)[C@@H](O)[C@]2(F)Cl)c(=O)[nH]1` [Example 1, 1-((2R,3S,4R,5R)-3-chloro-3-fluoro-4-hydroxy-5-(hydroxymethyl)tetrahydrofuran-2-yl)pyrimidine-2,4(1H,3H)-dione], the EC50 is over 50 µM. The same measure, in the same setting: the figure for `CC(C)OC(=O)[C@H](C)NP(=O)(OC[C@H]1O[C@@H](n2ccc(=O)[nH]c2=O)[C@@](F)(Cl)[C@@H]1O)Oc1ccc2c(c1)OCO2` (stereo partly drawn) [Example 9] is 0.19 µM. Turning to `COC[C@@H](C)OC(=O)[C@H](C)NP(=O)(OC[C@H]1O[C@@H](n2ccc(=O)[nH]c2=O)[C@@](F)(Cl)[C@@H]1O)Oc1ccccc1` (stereo partly drawn) [Example 20], the EC50 is 0.065 µM. Same read-out and setting: the figure for `C[C@H](NP(=O)(OC[C@H]1O[C@@H](n2ccc(=O)[nH]c2=O)[C@@](F)(Cl)[C@@H]1O)Oc1ccccc1)C(=O)OC1CCCCC1` (stereo partly drawn) [Example 4, (2S)-cyclohexyl 2-(((((2R,3R,4S,5R)-4-chloro-5-(2,4-dioxo-3,4-dihydropyrimidin-1(2H)-yl)-4-fluoro-3-hydroxytetrahydrofuran-2-yl)methoxy)(phenoxy)phosphoryl)amino)propanoate] is 0.09 µM; for `CCC(CC)COC(=O)[C@H](C)NP(=O)(OC[C@H]1O[C@@H](n2ccc(=O)[nH]c2=O)[C@@](F)(Cl)[C@@H]1O)Oc1ccccc1` (stereo partly drawn) [Example 7] it is 0.055 µM; for `COCC(COC)OC(=O)[C@H](C)NP(=O)(OC[C@H]1O[C@@H](n2ccc(=O)[nH]c2=O)[C@@](F)(Cl)[C@@H]1O)Oc1ccccc1` (stereo partly drawn) [Example 21] it is 0.21 µM. In the case of `CC(C)OC(=O)[C@H](C)NP(=O)(OC[C@H]1O[C@@H](n2ccc(=O)[nH]c2=O)[C@@](F)(Cl)[C@@H]1O)Oc1cccc(C2CCC2)c1` (stereo partly drawn) [Example 15], the EC50 was found to be 0.09 µM. On to `CCOC(=O)[C@H](C)NP(=O)(OC[C@H]1O[C@@H](n2ccc(=O)[nH]c2=O)[C@@](F)(Cl)[C@@H]1O)Oc1ccccc1` (stereo partly drawn) [Example 6], for which the concentration giving a half-maximal response (EC50) worked out at 0.079 µM. Regarding `CC(C)OC(=O)[C@H](C)NP(=O)(OC[C@H]1O[C@@H](n2ccc(=O)[nH]c2=O)[C@@](F)(Cl)[C@@H]1O)Oc1cccc(C2(C)CC2)c1` (stereo partly drawn) [Example 16], the EC50 is 0.091 µM. The same measure, in the same setting: the figure for `CCC(CC)OC(=O)[C@H](C)NP(=O)(OC[C@H]1O[C@@H](n2ccc(=O)[nH]c2=O)[C@@](F)(Cl)[C@@H]1O)Oc1ccccc1` (stereo partly drawn) [Example 22] is 0.058 µM.

For `COc1ccccc1OP(=O)(N[C@@H](C)C(=O)OC(C)C)OC[C@H]1O[C@@H](n2ccc(=O)[nH]c2=O)[C@@](F)(Cl)[C@@H]1O` (stereo partly drawn) [Example 10], the 50% effective concentration (EC50) was determined as 0.045 µM.

On to `CC[C@@H](C)OC(=O)[C@H](C)NP(=O)(OC[C@H]1O[C@@H](n2ccc(=O)[nH]c2=O)[C@@](F)(Cl)[C@@H]1O)Oc1ccccc1` (stereo partly drawn) [Example 5], for which the concentration giving a half-maximal response (EC50) turned out to be 0.043 µM. In the case of `COc1ccc(OP(=O)(N[C@@H](C)C(=O)OC(C)C)OC[C@H]2O[C@@H](n3ccc(=O)[nH]c3=O)[C@@](F)(Cl)[C@@H]2O)cc1` (stereo partly drawn) [Example 11], the half-maximal effective concentration (EC50) turned out to be 0.15 µM. With `CCCCOC(=O)[C@H](C)NP(=O)(OC[C@H]1O[C@@H](n2ccc(=O)[nH]c2=O)[C@@](F)(Cl)[C@@H]1O)Oc1ccccc1` (stereo partly drawn) [Example 8], the half-maximal effective concentration (EC50) is 0.044 µM. Same read-out and setting: the figure for `CC(C)OC(=O)[C@H](C)NP(=O)(OC[C@H]1O[C@@H](n2ccc(=O)[nH]c2=O)[C@@](F)(Cl)[C@@H]1O)Oc1cccc2ncccc12` (stereo partly drawn) [Example 24] is 1.4 µM.

For the compound `CC[C@H](C)OC(=O)[C@H](C)NP(=O)(OC[C@H]1O[C@@H](n2ccc(=O)[nH]c2=O)[C@@](F)(Cl)[C@@H]1O)Oc1ccccc1` (stereo partly drawn) [Example 13], the 50% effective concentration (EC50) is 0.061 µM.

With `COC[C@H](C)OC(=O)[C@H](C)NP(=O)(OC[C@H]1O[C@@H](n2ccc(=O)[nH]c2=O)[C@@](F)(Cl)[C@@H]1O)Oc1ccccc1` (stereo partly drawn) [Example 25], the EC50 was found to be 0.1 µM. As to `CC(C)OC(=O)[C@H](C)NP(=O)(OC[C@H]1O[C@@H](n2ccc(=O)[nH]c2=O)[C@@](F)(Cl)[C@@H]1O)Oc1cccc(C2CC2)c1` (stereo partly drawn) [Example 12], the EC50 amounted to 0.18 µM.

For `CC(C)OC(=O)[C@H](C)NP(=O)(OC[C@H]1O[C@@H](n2ccc(N)nc2=O)[C@@](F)(Cl)[C@@H]1O)Oc1ccccc1` (stereo partly drawn) [Example 26, (2S)-Isopropyl 2-(((((2R,3R,4S,5R)-5-(4-amino-2-oxopyrimidin-1(2H)-yl)-4-chloro-4-fluoro-3-hydroxytetrahydrofuran-2-yl)methoxy)(phenoxy)phosphoryl)amino)propanoate], the concentration giving a half-maximal response (EC50) was determined as 0.086 µM.

The same assay, now with this note: Huh-Luc HCV 1b replicon, three days incubation, luciferase activity; read-out: EC50.
For `CC(C)OC(=O)[C@H](C)NP(=O)(OC[C@H]1O[C@@H](n2ccc(=O)[nH]c2=O)[C@@](F)(Cl)[C@@H]1O)Oc1ccccc1` (stereo partly drawn) [Example 23], the EC50 turned out to be 5.1 µM.

The next assay concerns the target HCV NS5B-21 (Hepatitis C virus genotype 1b (isolate Con1) (HCV), UniProt Q9WMX2). As to the kind of experiment: Enzyme assay, HCV NS5B-21 SPA (scintillation proximity assay). The settings on record: triphosphates. In kind it is biochemical. As for the experimental part: It is this triphosphate which is believed to be the antivirally active species. The enzyme assay described here may be used to confirm that compounds of the invention are antivirally active as the 5′-triphosphate metabolite.
The enzyme assay measures the inhibitory effect of triphosphate compounds in an HCV NS5B-21 (21-amino acid C-terminally truncated version) SPA assay (scintillation proximity assay). The assay is performed by evaluating the amount of radiolabelled ATP incorporated by HCV NS5B-21 into newly synthesized RNA using an heterogeneous biotinylated RNA template.
To determine IC50 values the compounds are tested at various concentrations in a final volume of 100 μl of reaction mixture. The reaction is stopped by addition of 0.5M EDTA solution.
The samples are transferred into flashplates precoated with streptavidin. The incorporated radioactivity is quantified using a scintillation counter (Wallac Microbeta Trilux).
The assay should include enzyme controls (about four, containing 1 μl DMSO instead of inhibitor) and background control containing all ingredients except template.
Compounds are serially diluted in DMSO on a separate dilution plate to 100× the final desired assay concentrations. […]
Incubate the plate over night and read the flash plate in the Microbeta Trilux using the protocol Flash plates H3. […]
IC50 is determined using Graphpad Prism. […]
A word on the IC50: it is the concentration that gives 50% inhibition. Higher therefore signals weaker potency in that assay. The compound `O=c1ccn([C@@H]2O[C@H](COP(=O)(O)OP(=O)(O)OP(=O)(O)O)[C@@H](O)[C@]2(F)Cl)c(=O)[nH]1` [Example 3, Lithium ((2R,3R,4 S,5R)-4-chloro-5-(2,4-dioxo-3,4-dihydropyrimidin-1(2H)-yl)-4-fluoro-3-hydroxytetrahydrofuran-2-yl)methyl triphosphate] yielded a concentration for half-maximal inhibition (IC50) of 0.72 µM. Compound `Nc1ccn([C@@H]2O[C@H](COP(=O)(O)OP(=O)(O)OP(=O)(O)O)[C@@H](O)[C@]2(F)Cl)c(=O)n1` [Example 27, (((2R,3R,4 S, 5R)-5-(4-amino-2-oxopyrimidin-1(2H)-yl)-4-chloro-4-fluoro-3-hydroxytetrahydrofuran-2-yl)methyl)triphosphoric acid] yielded an IC50 of 0.089 µM.
